Data as given in patent publication US8871226B2, “Methods and compositions for the treatment and diagnosis of cancer” (Hafid Mahboubi, priority 2003, dated 2014).

Experiments:
Psoriasis = experiment: Antimycotic treatment of a Candida-seropositive patient, psoriasis; format: in vivo, human; details: Patient 4, Candida serological test 640; 100 mg 1 capsule a day for 1 month
Method: (§1) The inventor has performed many serological tests on patients suffering from various illnesses and particularly from different types of cancer. The inventor has shown that, in many of the patients who tested positive for Candida in the serological tests, after antimycotic treatments, a full recovery was observed, with complete disappearance of the tumours in the case of the patients affected by cancer.
Positive Candida serological test (640)
The patient was treated with Diflucan, 100 mg 1×1 capsule a day. For 1 month.

[1] = system: Cancer of the Ovary with Liver Metastasis; experiment: Antimycotic treatment of a Candida-seropositive patient, cancer of the ovary with liver metastasis; format: in vivo, human; details: Patient 6, Candida serological test 640; 100 mg 1 capsule a day for 30 days
Method: The inventor has performed many serological tests on patients suffering from various illnesses and particularly from different types of cancer.
Patient 6: person with Cancer of the Ovary with Liver Metastasis.
The patient was treated with Diflucan, 100 mg 1 capsule a day. For 30 days

candidiasis = details: in vivo; cited from earlier work
C. cruzii = details: infections caused by C. cruzii; cited from earlier work
C. glabrata = details: some other species of Candida, particularly C. glabrata; cited from earlier work
[2] = system: tumour of the myoma of the uterus; experiment: Antimycotic treatment of a Candida-seropositive patient, tumour of the myoma of the uterus; format: in vivo, human; details: Patient 1, Candida rate 640; 1 tablet 2x day for two weeks, then 1 tablet a day for 30 days
Text: as §1
A patient, hospitalised, suffering from a tumour of the myoma of the uterus.
The patient was treated with Nizoral (1 tablet 2× day for two weeks, then 1 tablet a day for 30 days).

Prostate Cancer = experiment: Antimycotic treatment of Candida-seropositive patients, prostate cancer; format: in vivo, human
Text: as §1
Patient 2: person with Prostate Cancer.
Positive for Candida serological test (640)
The patient was treated with Orungal, 100 mg capsules, 1×1 caps a day for 1 month.
Patient 7: person with Prostate Cancer
Positive candida serological test (320).
The patient was treated with Nizoral (1 tablet 2× day for two weeks, then 1 tablet a day for 30 days.

Breast Cancer = experiment: Antimycotic treatment of a Candida-seropositive patient, breast cancer; format: in vivo, human; details: Patient 3, Candida serological test 320; capsule 100 mg, 1 caps a day for 60 days
Method: as §1
Patient 3: person with Breast Cancer
The patient was treated with Orungal, capsule 100 mg, 1×1 caps a day for 60 days.

Ulcerative Colitis = experiment: Antimycotic treatment of a Candida-seropositive patient, ulcerative colitis; format: in vivo, human; details: Patient 5, serological test 320; 100 mg 1 caps a day for 28 days
Method: as §1
Patient 5: Ulcerative Colitis.
Positive serological test (320).
The patient was treated with Orungal, 100 mg 1×1 caps a day, for 28 days.

Q: With `OC(Cn1cncn1)(Cn1cncn1)c1ccc(F)cc1F` [Diflucan] as the compound, how does the Result of treatment (Psoriasis) read?
A: Complete recovery at the end of the treatment

Q: And the Result of treatment [1]?
A: Complete recovery with disappearance of the tumours

Q: For `OC(Cn1cncn1)(Cn1cncn1)c1ccc(F)cc1F` [Fluconazole, fluconazole], which “Effectiveness in candidiasis compared with amphotericin B” value (candidiasis) is on record?
A: as effective as amphotericin B

Q: And the “Response of infections to treatment” value (C. cruzii)?
A: do not respond

Q: And the “Sensitivity compared with C. albicans” value (C. glabrata)?
A: less sensitive

Q: With `CC(=O)N1CCN(c2ccc(OCC3COC(Cn4ccnc4)(c4ccc(Cl)cc4Cl)O3)cc2)CC1` (stereo not shown) [Nizoral] as the compound, how does the “Result of treatment (tumour)” value [2] read?
A: Disappearance of the tumour at the end of the treatment

Q: What about the Result of treatment (Prostate Cancer; Patient 7, Candida serological test 320, 1 tablet 2x day for two weeks, then 1 tablet a day for 30 days) of the same compound?
A: Complete recovery

Q: What does the source list for `CCC(C)n1ncn(-c2ccc(N3CCN(c4ccc(OCC5COC(Cn6cncn6)(c6ccc(Cl)cc6Cl)O5)cc4)CC3)cc2)c1=O` (stereo not shown) [Orungal]?
A: Result of treatment (Prostate Cancer; Patient 2, Candida serological test 640, 100 mg capsules, 1 caps a day for 1 month): Complete recovery at the end of the treatment with disappearance of the tumour; Result of treatment (Breast Cancer): Complete recovery at the end of the treatment; Result of treatment (Ulcerative Colitis): Complete recovery at the end of the treatment
